The text below walks through data of patent publication US11077115B2, “Rorgamma modulators and uses thereof” (Genfit, priority 2017, dated 2021).

In test [1] the target is T1, human RORγt (Homo sapiens, UniProt P51449).
T1 sequence (P51449 1-497 isoform P51449-2): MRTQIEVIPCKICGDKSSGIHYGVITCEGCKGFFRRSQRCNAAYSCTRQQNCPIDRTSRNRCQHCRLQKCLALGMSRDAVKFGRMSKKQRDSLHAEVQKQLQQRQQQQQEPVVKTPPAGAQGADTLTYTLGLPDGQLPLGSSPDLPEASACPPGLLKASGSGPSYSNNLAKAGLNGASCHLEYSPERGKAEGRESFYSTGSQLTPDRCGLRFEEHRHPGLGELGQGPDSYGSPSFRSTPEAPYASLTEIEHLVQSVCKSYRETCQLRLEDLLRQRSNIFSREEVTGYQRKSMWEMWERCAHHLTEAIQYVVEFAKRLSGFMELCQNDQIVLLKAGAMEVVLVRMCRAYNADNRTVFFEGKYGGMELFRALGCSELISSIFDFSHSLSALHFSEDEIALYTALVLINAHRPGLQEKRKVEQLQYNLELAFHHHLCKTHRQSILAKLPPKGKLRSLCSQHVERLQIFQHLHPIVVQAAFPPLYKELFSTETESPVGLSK
Briefly: IL-17 secretion from EL4 murine lymphoma overexpressing human RORγt. The conditions noted are these: IL-17 secretion inhibition in human RORγt-transfected EL4 Tcells, PMA/ionomycin stimulation. Also on record: V5-His (named only through the vector pcDNA3.1D/V5-His-TOPO); expressed in transfected cells. Format: cell-based. The protocol: Murine EL-4 lymphoma cell line overexpressing human RORγt was used in this functional assay to assess compound ability to inhibit IL-17 cytokine secretion.
EL-4 cells are maintained in a standard culture medium RPMI supplemented with 10% fetal calf serum, 1% sodium pyruvate, 1% essential amino acids and 1% antibiotics at 37° C. in a humidified atmosphere of 5% CO2 and 95% air. Culture medium was changed every 2 days. EL4 cells were transfected with a plasmid encoding hRORγt (sequence identical to published sequence NM 001001523). […] Briefly, 1 μg of DNA/1 million cells was served to transfect EL-4 cells. Cell/DNA suspension was transferred into certified cuvette and the electroporation of RORγt plasmid was carried out using appropriate Nucleofector® program.
Cells were seeded in 96 well plates at a density of 150000 cells/well then treated with compounds of this invention at indicated concentrations and incubated for 24 hours at 37° C. in a humidified atmosphere of 5% CO2 and 95% air. EL-4 cells were pretreated with test compounds (RORγ modulators) and stimulated with PMA (10 ng/mL) and ionomycin (1 μM final concentration) in the presence of test compound concentrations for additional 24 h at 37° C. in a humidified atmosphere of 5% CO2 and 95% air. Subsequently, supernatants were collected (after centrifugation at 300 g for 10 minutes) to determine the concentrations of IL-17 by HTRF (CisBio, France) or ELISA (R&D Systems Europe) according to the manufacturer's protocols.

Test [2] addresses T1, human RORγt. The test can be described thus: RORE Luciferase/RORγt transactivation assay (IL-17 promoter luciferase reporter in COS-7 cells). In kind it is cell-based. Also on record: V5-His (named only through the vector pcDNA3.1D/V5-His-TOPO); expressed in transfected cells; host or cells: COS-7 (monkey kidney). The conditions noted are these: RORγt activity inhibition, luciferase activity in transfected COS-7 cells, 20 h. The gist of the method:
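COS-7 cells co-transfected with human RORγt and luciferase reporter driven by 4.3 kb IL-17 promoter with CNS enhancer, seeded in serum-free, phenol red-free DMEM. Compounds added at 0.3% DMSO final; luciferase read by Steady-Glo luminescence. IC50 (μM) and Emax (%) reported.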
In general terms: A reporter such as luciferase makes a cellular process visible.

Test [3] addresses T2, RORγt ligand-binding domain (RORγt-LBD) (Homo sapiens, UniProt P51449).
T2 construct: 20 nM recombinantly expressed RORγ-LBD fused to GST
T2 sequence (P51449 269-508 limits assumed): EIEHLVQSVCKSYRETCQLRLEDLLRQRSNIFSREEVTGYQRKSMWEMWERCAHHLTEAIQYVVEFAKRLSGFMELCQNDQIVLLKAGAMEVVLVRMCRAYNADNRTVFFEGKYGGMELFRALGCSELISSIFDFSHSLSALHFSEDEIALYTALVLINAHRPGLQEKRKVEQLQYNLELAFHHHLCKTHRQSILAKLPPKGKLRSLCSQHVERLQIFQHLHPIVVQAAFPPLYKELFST
Briefly: Time-resolved FRET (TR-FRET) RORγt coactivator assay (RIP140 peptide displacement). In kind it is biochemical. The note with it: ligand-dependent coactivator-RORγt binding. An excerpt: Time-resolved FRET (TR-FRET) RORγt coactivator assay was used to identify RORγ modulator compounds with ligand-dependent coactivator displacement. The assay uses a d2-labeled anti-GST antibody, synthetic N-terminally biotinylated peptide which is derived from nuclear receptor coactivator protein RIP140, and a RORγt ligand-binding domain (RORγt-LBD) that is tagged with glutathione-S-transferase (GST). The influence of compounds on the RORγ-peptide interaction relies on the binding dependent energy transfer from a donor to an acceptor fluorophor attached to the binding partner of interest. […] For reduction of background from compound fluorescence, TR-FRET method makes use of generic fluorophore labels and time resolved detection.
The assays were done in a final volume of 20 μl in a 384 well plate in a CHAPS buffer (2 mM CHAPS; 1 mM DTT, 2 mM EDTA; 0.1% BSA), containing 20 nM recombinantly expressed RORγ-LBD fused to GST, 30 nM N-terminally biotinylated peptide, 1 nM streptavidin-terbium conjugate and 20 nM d2 labeled-anti-GST. Test compounds were diluted using 10 mM stock solution. The range of the final compound concentrations used in this test was from 0.3 nM to 30 μM (logarithmic scale). DMSO content of the samples was kept at 1%. The assay was equilibrated for 2 hours in the dark at room temperature in 384 well plates (Falcon). The signal was detected by an Ultra384 reader (TECAN). […] Compounds that promote coactivator displacement induce a concentration-dependent decrease in time-resolved fluorescent signal. Data were collected and analyzed using GraphPad Prism software (GraphPad Software V5.02, San Diego Calif. USA). IC50 in μM and E max in % were reported for each compound.
Background: Time-resolved FRET reads energy transfer from a long-lived donor to a nearby acceptor.

For `COc1ccc(C(NC(=O)Cc2ccc(N3CCS(=O)(=O)CC3)c(C)c2)c2ccc(C)o2)c(N2CCC(C)CC2)c1` (stereo not drawn) [Cpd. 13, 2-[4-(1,1-dioxo-1-thiomorpholin-4-yl)-3-methylphenyl]-N-{[4-methoxy-2-(4-methylpiperidin-1-yl)phenyl](5-methylfuran-2-yl)methyl}acetamide], the half-maximal inhibitory concentration (IC50) in test [1], in test [2] and in test [3] was 100 to 1000 nM throughout.
For `O=C(Cc1ccc(N2CCS(=O)(=O)CC2)cc1)NC(c1ccccc1)c1ccccc1N1CCCCC1` (stereo not drawn) [Cpd. 1, 2-[4-(1,1-dioxo-1-thiomorpholin-4-yl)phenyl]-N-{phenyl[2-(piperidin-1-yl)phenyl]methyl}acetamide], the IC50 (usually the point on the concentration scale where inhibition reaches its midpoint) was 100 to 1000 nM in test [1], 100 to 1000 nM in test [2] and less than 1000 nM in test [3].
Regarding `Cc1ccc(C(NC(=O)Cc2ccc(N3CCS(=O)(=O)CC3)c(C)c2)c2ccc(C)o2)c(Br)c1` (stereo not drawn) [Cpd. 11, N-[(2-bromo-4-methylphenyl)(5-methylfuran-2-yl)methyl]-2-[4-(1,1-dioxo-1-thiomorpholin-4-yl)-3-methylphenyl]acetamide], the half-maximal inhibitory concentration (IC50) was 100 to 1000 nM in test [1], 100 to 1000 nM in test [2] and less than 1000 nM in test [3].
Turning to `Cc1ccc(C(NC(=O)C2(c3cc(N4CCS(=O)(=O)CC4)ccc3C)CC2)c2ccc(C)o2)c(C)c1` (stereo not drawn) [Cpd. 70, N-[(2,4-dimethylphenyl)(5-methylfuran-2-yl)methyl]-1-[5-(1,1-dioxo-1-thiomorpholin-4-yl)-2-methylphenyl]cyclopropane-1-carboxamide], the 50% inhibitory concentration (IC50) in test [1] was 1000 to 10000 nM; in test [3], 100 to 1000 nM.
On to `Cc1ccc(C(NC(=O)Cc2ccc(O)c(N3CCS(=O)(=O)CC3)c2)c2ccc(C)o2)c(N2CCCCC2)c1` (stereo not drawn) [Cpd. 39, 2-[3-(1,1-dioxo-1-thiomorpholin-4-yl)-4-hydroxyphenyl]-N-{[4-methyl-2-(piperidin-1-yl)phenyl](5-methylfuran-2-yl)methyl}acetamide], for which the values for the half-inhibitory concentration (IC50) in test [1], in test [2] and in test [3] were less than 1000 nM, less than 100 nM and less than 1000 nM, respectively.
Take `Cc1ccc(C(NC(=O)C2(c3ccc(N4CCS(=O)(=O)CC4)cc3)CC2)c2ccc(C)o2)c(C)c1` (stereo not drawn) [Cpd. 31, N-[(2,4-dimethylphenyl)(5-methylfuran-2-yl)methyl]-1-[4-(1,1-dioxo-1-thiomorpholin-4-yl)phenyl]cyclopropane-1-carboxamide]: the IC50 was less than 1000 nM in test [1], less than 100 nM in test [2] and less than 1000 nM in test [3].
For `Cc1ccc(C(NC(=O)Cc2cnc(N3CCS(=O)(=O)CC3)nc2)c2ccc(C)o2)c(N2CCCCC2)c1` (stereo not drawn) [Cpd. 20, 2-[2-(1,1-dioxo-1-thiomorpholin-4-yl)pyrimidin-5-yl]-N-{[4-methyl-2-(piperidin-1-yl)phenyl](5-methylfuran-2-yl)methyl}acetamide], the results for the half-maximal inhibitory concentration (IC50) in test [1], in test [2] and in test [3] were less than 1000 nM, less than 100 nM and less than 1000 nM, respectively.
Consider `Cc1ccc(C(NC(=O)Cc2ccc(N3CCS(=O)(=O)CC3)c(C)c2)c2ccc(C)o2)c(N2CCCCC2)c1` (stereo not drawn) [Cpd. 12, 2-[4-(1,1-dioxo-1-thiomorpholin-4-yl)-3-methylphenyl]-N-{[4-methyl-2-(piperidin-1-yl)phenyl](5-methylfuran-2-yl)methyl}acetamide], for which the IC50 was less than 1000 nM in test [1], less than 100 nM in test [2] and less than 1000 nM in test [3].
As to `Cc1ccc(C(NC(=O)Cc2ccc(N3CCS(=O)(=O)CC3)cc2)c2ccccc2)c(Br)c1` (stereo not drawn) [Cpd. 9, N-[(2-bromo-4-methylphenyl)(phenyl)methyl]-2-[4-(1,1-dioxo-1-thiomorpholin-4-yl)phenyl]acetamide], the concentration for half-maximal inhibition (IC50) in test [1] was 100 to 1000 nM; in test [2], 100 to 1000 nM; in test [3], less than 1000 nM.
For `Cc1ccc(C(NC(=O)C2(c3cnc(N4CCS(=O)(=O)CC4)nc3)CC2)c2ccc(Cl)cc2C)o1` (stereo not drawn) [Cpd. 53, N-[(4-chloro-2-methylphenyl)(5-methylfuran-2-yl)methyl]-1-[2-(1,1-dioxo-1-thiomorpholin-4-yl)pyrimidin-5-yl]cyclopropane-1-carboxamide], the IC50 in test [1] was 100 to 1000 nM; in test [2] it was less than 100 nM; in test [3], less than 1000 nM.
For `Cc1ccc(C(NC(=O)Cc2ccc(N3CCS(=O)(=O)CC3)cc2C)c2ccc(C)o2)c(N2CCCCC2)c1` (stereo not drawn) [Cpd. 18, 2-[4-(1,1-dioxo-1-thiomorpholin-4-yl)-2-methylphenyl]-N-{[4-methyl-2-(piperidin-1-yl)phenyl](5-methylfuran-2-yl)methyl}acetamide] the same measures were less than 1000 nM, less than 100 nM and less than 1000 nM.
In the same order, the values of `Cc1ccc(C(NC(=O)Cc2cnc(N3CCS(=O)(=O)CC3)nc2C)c2ccc(C)o2)c(N2CCCCC2)c1` (stereo not drawn) [Cpd. 38, 2-[2-(1,1-dioxo-1-thiomorpholin-4-yl)-4-methylpyrimidin-5-yl]-N-{[4-methyl-2-(piperidin-1-yl)phenyl](5-methylfuran-2-yl)methyl}acetamide] are less than 1000 nM, less than 100 nM and less than 1000 nM.
In the case of `Cc1ccc(C(NC(=O)C2(c3ncc(N4CCS(=O)(=O)CC4)cc3C)CC2)c2ccc(C)o2)c(C)c1` (stereo not drawn) [Cpd. 72, N-[(2,4-dimethylphenyl)(5-methylfuran-2-yl)methyl]-1-[5-(1,1-dioxo-1-thiomorpholin-4-yl)-3-methylpyridin-2-yl]cyclopropane-1-carboxamide], the IC50 in test [1] was less than 1000 nM; in test [2], less than 100 nM.
For `COc1ccc(C(NC(=O)C2(c3cnc(N4CCS(=O)(=O)CC4)nc3)CC2)c2ccc(C)o2)c(C)c1` (stereo not drawn) [Cpd. 57, 1-[2-(1,1-dioxo-1-thiomorpholin-4-yl)pyrimidin-5-yl]-N-[(4-methoxy-2-methylphenyl)(5-methylfuran-2-yl)methyl]cyclopropane-1-carboxamide] the same measures were 1000 to 10000 nM and 100 to 1000 nM.
